The values below come from patent US20260374766A1, “METHODS FOR TREATING CANCER” (Antares Therapeutics, Inc., priority 2022, published 2026).

The target of assay [1] is T1, p53 Y220C mutant protein (amino acid residues 94-293) (Homo sapiens, UniProt P04637, Y220C).
T1 construct: p53 Y220C mutant protein (amino acid residues 94-293)
Kind of assay: Surface Plasmon Resonance (SPR) assay, Kd_kinetic. The format is binding. Conditions: SPR; p53 Y220C; read-out: SPR P53 Y220C KD kinetic. The gist of the method:
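Surface plasmon resonance is run at 16 or 20 °C in 50 mM Tris pH 7.5 containing 100 mM NaCl, 1 mM DTT, 0.01% Brij35, 0.05% Tween-20 and 1% DMSO. Association and dissociation data are fitted to a 1:1 model.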

The target in a further assay is p53 Y220C (Homo sapiens, UniProt P04637, Y220C). The assay is described as follows: Luciferase Reporter Assay (Luc), p53 response element, NClH1299 cells with inducible p53 Y220C. The format is cell-based. The conditions noted are these: luciferase reporter, NClH1299 inducible p53 Y220C, 6 hour; for AC50: read-out: Luc P53 Y220C AC50. The gist of the method: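 H1299 cells induced with 0.5 ug/mL doxycycline for 24 hours, then exposed to compound for 6 hours. p53 response-element luciferase read by One-Glo luminescence after 5 min shaking at room temperature.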
(A reporter such as luciferase makes a cellular process visible.)

In the next assay the test system is NUGC3 p53 Y220C. Kind of assay: Cell Proliferation Assay (CellTiter-Glo, CTG), NUGC3 p53 Y220C. The format is cell-based. The conditions noted are these: Homo sapiens, NUGC-3, 120 h, NUGC3 cells, 5 days, CellTiter-Glo. The method, boiled down: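 Tet-One inducible p53 Y220C or R273H constructs were stably introduced into NCI-H1299 by lentiviral transduction; NUGC3 was used as is. Cells (250-500 per well) were exposed to compound for 5 days, then CellTiter-Glo was added for 10 min at room temperature and IC50 was calculated from luminescence.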
A general note: Cellular ATP, detected with luciferase, serves as a proxy for viable cell number.

For another assay, the system named is H1299 p53 Y220C. Kind of assay: Cell Proliferation Assay (CellTiter-Glo, CTG), H1299 p53 Y220C (NClH1299-inducible p53 Y220C). The format is cell-based. Conditions: Homo sapiens, NCI-H1299, 120 h, NClH1299-inducible p53 Y220C cells, 5 days, CellTiter-Glo. The method, boiled down: (§1)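 Cells seeded at 250-500 per well and exposed to compound for 5 days. Viability read by CellTiter-Glo luminescence after 10 min at room temperature; IC50 calculated. H1299 lines carry Tet-One inducible p53 mutant constructs introduced by lentiviral transduction.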

A further assay deals with H1299 p53 R273H. Kind of assay: Cell Proliferation Assay (CellTiter-Glo, CTG), H1299 p53 R273H (NClH1299-inducible p53 R273H). The format is cell-based. The conditions noted are these: Homo sapiens, NCI-H1299, 120 h, NClH1299-inducible p53 R273H cells, 5 days, CellTiter-Glo. The gist of the method: as §1

T1 sequence (P04637 94-293, stated change not applied): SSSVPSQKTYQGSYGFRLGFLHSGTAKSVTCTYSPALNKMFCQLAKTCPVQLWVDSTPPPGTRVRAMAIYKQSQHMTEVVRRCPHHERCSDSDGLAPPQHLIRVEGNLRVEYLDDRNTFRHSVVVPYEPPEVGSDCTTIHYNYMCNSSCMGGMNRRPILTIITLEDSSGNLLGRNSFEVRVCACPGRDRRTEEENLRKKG

In general, Kd refers to a measure of binding affinity in units of concentration. Usually AC50 stands for the concentration giving half of the maximal activity seen. Broadly, the Emax is the greatest response seen or fitted, relative to the assay's reference. One may read the IC50 as the concentration at which inhibition is half-maximal. A high value points to weaker potency. For `CNC(=O)c1ccc(NCC#Cc2cn3c(N[C@@H]4CCNC[C@@H]4F)cccc3c2SC(F)(F)F)c(OC)c1` [Example 434], the Kd in assay [1] is below 10 nM. For the same compound, the AC50 on p53 Y220C is below 750 nM. The Emax on p53 Y220C was in the range of 80 to 90%. For the same compound, the values for the IC50 with NUGC3 p53 Y220C, with H1299 p53 Y220C and with H1299 p53 R273H were below 750 nM, below 750 nM and 5000 to 8000 nM, respectively.

On to `CNC(=O)c1ccc(NCC#Cc2cc3c(N[C@@H]4CCNC[C@@H]4F)cccn3c2SC(F)(F)F)c(OC2COC2)c1` [Example 435], for which the Kd in assay [1] is below 10 nM. Besides, on p53 Y220C, the AC50 is below 750 nM. The Emax at p53 Y220C is above 90%. Moreover, the IC50 in the assay with NUGC3 p53 Y220C is below 750 nM; in the assay on H1299 p53 Y220C it was below 750 nM; with H1299 p53 R273H, at least 10000 nM.

On to `CNC(=O)c1ccc(NCC#Cc2cc3c(N[C@@H]4CCN(C)C[C@@H]4F)cccn3c2SC(F)(F)F)c(OCF)c1` [Example 436, 4-{[3-(8-{[(3S,4R)-3-fluoro-1-methylpiperidin-4-yl]amino}-3-[(trifluoromethyl)sulfanyl]indolizin-2-yl)prop-2-yn-1-yl]amino}-3-(fluoromethoxy)-N-methylbenzamide], for which the Kd in assay [1] was below 10 nM. In addition, the AC50 on p53 Y220C is below 750 nM. For the same compound, on p53 Y220C, the Emax was above 90%. Further, the IC50 is below 750 nM in the assay with NUGC3 p53 Y220C, below 750 nM with H1299 p53 Y220C and at least 10000 nM in the assay with H1299 p53 R273H.

In the case of `CN1CC[C@@H](Nc2cccn3c(SC(F)(F)F)c(C#CCNc4ccc(P(C)(C)=O)c5ocnc45)cc23)[C@@H](F)C1` [Example 437, 7-(dimethylphosphoryl)-N-[3-(8-{[(3S,4R)-3-fluoro-1-methylpiperidin-4-yl]amino}-3-[(trifluoromethyl)sulfanyl]indolizin-2-yl)prop-2-yn-1-yl]-1,3-benzoxazol-4-amine], in assay [1], the Kd is below 10 nM. Also, at p53 Y220C, the AC50 is below 750 nM. Further, the Emax on p53 Y220C was above 90%. In addition, the figures for the IC50 with NUGC3 p53 Y220C, in the assay on H1299 p53 Y220C and in the assay with H1299 p53 R273H were below 750 nM, below 750 nM and at least 10000 nM, respectively.

As for `CS(=O)(=O)CCNC(=O)c1ccc(NCC#Cc2cc3c(N[C@@H]4CCNC[C@@H]4F)cccn3c2SC(F)(F)F)cc1` [Example 438], in assay [1], the Kd is below 10 nM. Also, the AC50 at p53 Y220C is below 750 nM. The maximum response (Emax) at p53 Y220C was in the range of 80 to 90%. Further, the IC50 was below 750 nM in the assay with NUGC3 p53 Y220C, below 750 nM in the assay with H1299 p53 Y220C and at least 10000 nM in the assay with H1299 p53 R273H.

As to `CNC(=O)c1ccc(NCC#Cc2cn3c(N[C@@H]4CCN(C)C[C@@H]4F)cccc3c2SC(F)F)c(OC)c1` [Example 440], the Kd in assay [1] is below 10 nM. Besides, at p53 Y220C, the AC50 is below 750 nM. At p53 Y220C, this compound came in with an Emax above 90%. Further, the IC50 in the assay on NUGC3 p53 Y220C was below 750 nM; in the assay with H1299 p53 Y220C, below 750 nM; in the assay with H1299 p53 R273H, 8000 to 10000 nM.

Consider `CN1CC[C@@H](Nc2cccn3c(SC(F)(F)F)c(C#CCNc4ccc(C(=O)NC[C@@H]5COCCO5)cc4)cc23)[C@@H](F)C1` [Example 441], for which the Kd in assay [1] is below 10 nM. Also, the AC50 on p53 Y220C is below 750 nM. The compound also yielded an Emax at p53 Y220C above 90%. The IC50 is below 750 nM in the assay with NUGC3 p53 Y220C, below 750 nM in the assay on H1299 p53 Y220C and at least 10000 nM with H1299 p53 R273H.

Regarding `[2H]C([2H])([2H])Oc1cc(C(=O)NC)ccc1NCC#Cc1cc2c(N[C@@H]3CCN(C)C[C@@H]3F)cccn2c1SC(F)(F)F` [Example 442, 4-((3-(8-(((3S,4R)-3-fluoro-1-methylpiperidin-4-yl)amino)-3-((trifluoromethyl)thio)indolizin-2-yl)prop-2-yn-1-yl)amino)-3-(methoxy-d3)-N-methylbenzamide], the Kd in assay [1] is below 10 nM. In addition, the AC50 on p53 Y220C was below 750 nM. On p53 Y220C, this compound returned an Emax of 80 to 90%. Also, the IC50 in the assay with NUGC3 p53 Y220C is below 750 nM; in the assay with H1299 p53 Y220C, below 750 nM; in the assay with H1299 p53 R273H, 5000 to 8000 nM.

As for `CNC(=O)c1ccc(OC)c(NCC#Cc2cc3c(N[C@@H]4CN(C)C[C@@H]4F)cccn3c2SC(F)(F)F)c1` [Example 444], the dissociation constant (Kd) in assay [1] is below 10 nM. Further, at p53 Y220C, the AC50 was below 750 nM. Further, the Emax at p53 Y220C is above 90%. For the same compound, the IC50 in the assay on NUGC3 p53 Y220C is below 750 nM; in the assay on H1299 p53 Y220C, below 750 nM; with H1299 p53 R273H, at least 10000 nM.

For `COc1nc(P(C)(C)=O)ncc1NCC#Cc1cc2c(N[C@@H]3CCN(C)C[C@@H]3F)cccn2c1SC(F)(F)F` [Example 445, 2-(3-{[2-(dimethylphosphoryl)-4-methoxypyrimidin-5-yl]amino}prop-1-yn-1-yl)-N-[(3S,4R)-3-fluoro-1-methylpiperidin-4-yl]-3-[(trifluoromethyl)sulfanyl]indolizin-8-amine], the Kd in assay [1] was below 10 nM. The AC50 at p53 Y220C is below 750 nM. In addition, the Emax on p53 Y220C was above 90%. For the same compound, the IC50 in the assay with NUGC3 p53 Y220C was below 750 nM; with H1299 p53 Y220C, below 750 nM; with H1299 p53 R273H it was at least 10000 nM.

In the case of `CNC(=O)c1ccc(NCC#Cc2cc3c(N[C@@H]4CCN(C)C[C@@H]4F)nccn3c2SC(F)(F)F)c(O)c1` [Example 446, 4-{[3-(1-{[(3S,4R)-3-fluoro-1-methylpiperidin-4-yl]amino}-6-[(trifluoromethyl)sulfanyl]pyrrolo[1,2-a]pyrazin-7-yl)prop-2-yn-1-yl]amino}-3-hydroxy-N-methylbenzamide], the Kd in assay [1] is below 10 nM. Also, the AC50 at p53 Y220C was below 750 nM. This compound yielded an Emax on p53 Y220C above 90%. In addition, the figures for the IC50 in the assay with NUGC3 p53 Y220C, in the assay on H1299 p53 Y220C and with H1299 p53 R273H were below 750 nM, below 750 nM and at least 10000 nM, respectively.

Consider `CN1CC[C@@H](Nc2cccn3c(SC(F)(F)F)c(C#CCNc4ccc(C(=O)NCC5COC5)cc4)cc23)[C@@H](F)C1` [Example 447], for which, in assay [1], the Kd is below 10 nM. For the same compound, the AC50 on p53 Y220C was below 750 nM. Besides, the Emax on p53 Y220C was above 90%. In addition, the IC50 with NUGC3 p53 Y220C is below 750 nM; in the assay with H1299 p53 Y220C it was below 750 nM; in the assay on H1299 p53 R273H, at least 10000 nM.

For `CNC(=O)c1ccc(OC)c(NCC#Cc2cc3c(N[C@@H]4CCN(C[C@H](C)O)C[C@@H]4F)nccn3c2SC(F)(F)F)c1` [Example 448], in assay [1], the Kd was below 10 nM. Moreover, the AC50 on p53 Y220C was below 750 nM. The same compound had an Emax on p53 Y220C above 90%. Further, the IC50 is below 750 nM with NUGC3 p53 Y220C, below 750 nM in the assay on H1299 p53 Y220C and 5000 to 8000 nM in the assay on H1299 p53 R273H.

Consider `CN1CC[C@@H](Nc2cccn3c(SC(F)(F)F)c(C#CCNc4ccc(P(C)(C)=O)c5c4OCC5)cc23)[C@@H](F)C1` [Example 449], for which, in assay [1], the Kd is below 10 nM. In addition, the AC50 on p53 Y220C was below 750 nM. The Emax at p53 Y220C was above 90%. The IC50 with NUGC3 p53 Y220C is below 750 nM; with H1299 p53 Y220C it was below 750 nM; with H1299 p53 R273H it was 5000 to 8000 nM.

`CNC(=O)c1ccc(NCC#Cc2cc3c(N[C@@H]4CCN(C)C[C@@H]4F)cccn3c2SC(F)(F)F)c(C(F)F)c1` [Example 450, 3-(difluoromethyl)-4-{[3-(8-{[(3S,4R)-3-fluoro-1-methylpiperidin-4-yl]amino}-3-[(trifluoromethyl)sulfanyl]indolizin-2-yl)prop-2-yn-1-yl]amino}-N-methylbenzamide]: in assay [1], the Kd was below 10 nM. On p53 Y220C, the AC50 is below 750 nM. Besides, the Emax at p53 Y220C is above 90%. In addition, the IC50 in the assay on NUGC3 p53 Y220C is below 750 nM; in the assay on H1299 p53 Y220C, below 750 nM; in the assay with H1299 p53 R273H, at least 10000 nM.

As to `COc1cc(C(=O)O)ccc1NCC#Cc1cc2c(N[C@@H]3CCN(C)C[C@@H]3F)cccn2c1SC(F)(F)F` [Example 451], the Kd in assay [1] was below 10 nM. The AC50 at p53 Y220C is below 750 nM. Besides, the Emax on p53 Y220C was above 90%. Moreover, the IC50 is below 750 nM with NUGC3 p53 Y220C, below 750 nM in the assay on H1299 p53 Y220C and at least 10000 nM with H1299 p53 R273H.
